Laboratory results published in US9427433B2, “Methods and compositions for enhancing fertility and/or inhibiting pregnancy failure and restoring glucose tolerance” (Queen's University at Kingston, priority 2011, dated 2016).

Experiments:
Assay type in all cases: in vivo, mouse
[1] = tested on: high fat fed female NZO mice; test: Ovarian histology of macrolide-treated chronically high fat fed NZO mice; conditions: chronically high fat diet fed NZO mice
Description: Statistical differences between groups were measured by two-way analysis of variance (ANOVA) followed by Bonferroni post-hock t-test comparing effect of all tested macrolides on mean follicular structure counts/unit area at 95% confidence. Scale bars=200 μm for B, D, F, G, H, I, J and 50 μm for A, C, E. N=10 (HFD-NZO), 6 per treatment group. A, C and E are higher magnifications of B, D and F respectively. * denoting ovarian cyst(s).
(§1) For the comparative evaluation of other macrolide drugs to tacrolimus, mice starting at 7 weeks of age were maintained on the high fat diet for a total of 13 weeks of study period. Mice were entered into the experiments when determined to be glucose intolerant as described above. Methods of drug administration and other experimental methods were as described above.

[2] = tested on: NZO mice fed a high fat diet; test: Fasting serum glucose, fasting serum insulin and glucose tolerance, comparison of macrolides; conditions: vs vehicle
Description: Female mice were administered tacrolimus (0.1 mg/kg or 0.05 mg/kg, n=6/group), vehicle (n=10), pimecrolimus (0.1 mg/kg, n=6) or sirolimus (0.1 mg/kg, n=6) subcutaneously every other day for 3 weeks.
as §1
Glucose Tolerance Test (GTT): was performed according to standard protocol (Ayala et al 2010). Briefly, basal glucose levels were measured for conscious mice individually caged in 1000 cc plastic mouse caging using a one-touch ultra glucose strips and meter (Acqui-check Aviva, Roche, Montreal, Canada) and approximately 30 microliters of blood obtained via tail venipuncture prior to fasting for six hours in cages equipped with hardwood bedding. Fasting blood glucose was recorded at the end of the six hours fasting period. Mice were then tested for oral glucose tolerance (OGTT) or for insulin sensitivity (Si). For OGTT alert mice were then given 20% D-glucose (2 g/kg body weight) sterile syrup administered orally. For Si experiments mice were given 20% D-glucose (2 g/kg body weight) sterile syrup by intraperitoneal administration through a 1 ml D29 gage “½” insulin syringe (Fisher Scientific, Montreal, Canada). Then after, blood glucose was recorded at 15, 30, 45, 60, 90 and 120 minutes respectively. For Si experiments blood glucose was determined only at 15 minutes. Glucose tolerance graphs were generated by blotting mean±standard error of the mean (SEM) of the recorded glucose data per mouse per minute collection time. One way analysis of variance (ANOVA) followed by student t-test was performed to determine alpha values for statistical differences among mean blood glucose values across experimental mice groups.
Fasting immuno-reactive mouse insulin levels were quantitatively determined in citrated platelet-free plasma samples obtained from 6 hours-fasting mice using an Ultrasensitive mouse Insulin Eliza kit (#90080, Crystal chem., IL, USA) according to the manufacturer instructions. Briefly, platelet-free plasma were isolated from freshly obtained citrated whole blood samples of fasting mice and the provided insulin standards were incubated overnight on a shaking platform at 4 C^0 in a 96 wells plate coated with Guinea pig anti-insulin. Afterwards, unbound sample materials were thoroughly washed with the supplied wash buffers and the bound guinea pig anti-insulin/mouse insulin complex immobilized to the microplate wells were incubated with Horseradish peroxidase (HRP)-conjugated anti-insulin antibody for 40 minutes at room temperature with continuous agitation. Excess unbound HRP-conjugated anti-insulin antibodies were then washed excessively with wash buffers and the HRP-mediated color reaction was developed with the addition of 3,3′,5,5′ tetramethylbenzidine (TMB) substrate solution. The amount of insulin (ng/ml) present in the test samples were then measured via interpolation using the standard curve generated by plotting absorbance (at A^0450-A^0635) versus the corresponding concentration of a wide range (0.1-12.8 ng/ml) of mouse insulin standards according to the provider's instructions. Graphic representation of differences in mean±sem of plasma insulin among different groups of mice were blotted using Prism5 (La Jolla, Calif., USA) software and statistically significant differences (at 95% confidence) were calculated for the different test groups of mice using one way ANOVA followed by Bonferroni modified student t-test comparing differences between individual experimental groups.

[3] = tested on: pregnant diabetic mice; test: Fetal weight and intrauterine growth restriction (IUGR)
Text: FIGS. 14A and 14B show representative fetal weights (FIG. 14A) and percent of dams with intrauterine growth restricted (IUGR) pups (FIG. 14B) as measured on day 18.5 of pregnancy in the tacrolimus-treated diabetic mice versus vehicle-treated diabetic dams and those normoglycemic control cohorts. Whiskers in FIG. 14A represent the 10th and 90th percentiles of fetal body weight. Pups with weights below the 10th percentile of the normoglycemic control were considered intrauterine growth restricted (IUGR) as indicated by the shaded region. […] Numbers in brackets in FIG. 14A represents number of pups examined. “n” denotes number of dams. p<0.05.

[4] = 0.1 mg/kg s.c. every other day for 3 weeks

## C=CC[C@@H]1/C=C(\C)C[C@H](C)C[C@H](OC)[C@H]2O[C@@](O)(C(=O)C(=O)N3CCCC[C@H]3C(=O)O[C@H](/C(C)=C/[C@@H]3CC[C@@H](O)[C@H](OC)C3)[C@H](C)[C@@H](O)CC1=O)[C@H](C)C[C@@H]2OC [tacrolimus]
[1]
  follicular growth pattern in the ovaries: restored follicular growth pattern
[1]; p<0.001
  ovarian cyst formation: inhibited the development of ovarian cysts
[1]; vs untreated HFD-NZO
  ovarian follicular atresia: significantly inhibited ovarian follicular atresia (p<0.01)
[2]; [4]
  fasting basal serum glucose: normalized fasting basal serum glucose concentrations
  fasting basal serum insulin: significantly reduced fasting basal serum insulin concentrations
[2]; tacrolimus 0.1 or 0.05 mg/kg, pimecrolimus 0.1 mg/kg, sirolimus 0.1 mg/kg s.c. every other day for 3 weeks
  insulin secretion in response to a hyperglycemic challenge: significantly improved insulin secretion
[3]; 0.1 mg/kg s.c. every other day, weeks 9-11 of age
  treated pregnant diabetic mice in which IUGR development was inhibited: 88%
[3]; day 18.5 of pregnancy, 0.1 mg/kg s.c. every other day, weeks 9-11 of age, p<0.05
  fetal body weight: significantly improved fetal body weight
[3]; short term administration
  pups born to diabetic dams rescued from inflammatory-mediated growth restriction: 88%
